Test results taken from patent publication US6750244B2, “Compounds active at a novel site on receptor-operated calcium channels useful for treatment of neurological disorders and diseases” (NPS Pharmaceuticals, Inc., priority 1993, dated 2004).
Like-named read-outs stand apart in the source and are kept apart here.

Assays:
[1] = test system: formalin-induced flinching; assay type: in vivo, Sprague-Dawley rats
[2] = target: NMDA receptor-ionophore complex (site labeled by [3H]MK-801); test: Inhibition of [3H]MK-801 binding in rat cortical/hippocampal washed membrane preparations; conditions: read-out: IC50 (μM) vs. [3H]MK-801; rat cortical/hippocampal washed membranes
[3] = test system: forebrain ischemia (neuronal cell death); assay type: in vivo, gerbil; conditions: 10 mg/kg; 7 days post-ischemia
Method: Blood flow to the brain was interrupted for 7 minutes by clamping the carotid arteries. The test compounds were administered as a 'single dose given intraperitoneally (i.p.) 30 minutes after reinstating blood flow. During the course of these experiments, the core body temperature of the animals was maintained at 37° C. to prevent any hypothermic reaction. […]

[4] = test system: acetic acid-induced writhing; assay type: in vivo, mice; conditions: i.p.
[5] = test system: mean arterial blood pressure
thermal nociception [6] = assay type: in vivo, rats
Method: In this standard assay, the thermal nociceptive stimulus was 52° C. warm water with the latency to tail flick or withdrawal taken as the endpoint.

permanent focal ischemia = test: Permanent focal cerebral ischemia (middle cerebral artery occlusion, suture); assay type: in vivo, rat; conditions: 10 mg/kg i.p. immediately after onset of ischemic event; 24 hr
Method: In the second study of focal cerebral ischemia in the rat, the middle cerebral artery was permanently occluded by passing a small piece of suture thread through the carotid artery to the region of the middle cerebral artery. Core body temperature was maintained at 37° C. Compound 4, 10 mg/kg i.p. administered immediately after the onset of the ischemic event, produced a statistically significant reduction in the volume of the brain infarct (20%) recorded 24 hr later.

sound-induced seizures = test: Sound-induced seizures in Frings mice (reflex epilepsy); assay type: in vivo
induction of LTP = test system: induction of LTP; design: species or system rat
thermal nociception [7] = assay type: in vivo, rats; remark: listed apart in the source
Method: In these experiments, a 52° C. hot plate was used as the nociceptive stimulus.

focal ischemia = test: Photothrombotic (Rose Bengal) model of focal cerebral ischemia; assay type: in vivo, rat; conditions: 10 mg/kg i.p. 30 min after the ischemic event
Source text: In a third model of focal cerebral ischemia in the rat, an ischemic infarct was produced by a photothrombotic method using the dye Rose Bengal.

learning [8] = test: Morris water maze task; assay type: in vivo, rats; conditions: 10 mg/kg i.p. daily for 5 days
Method: In a second series of experiments, the effect of Compound 4 on learning in the Morris water maze task was evaluated. In this test, a hidden platform was placed in a fixed location in a circular steel tank, and submerged 2 cm below the surface of the water. Each rat was given 3 trials per day with a 10 min intertrial interval for 5 days. A trial was initiated by placing the rat in the water, nose facing the wall of the tank, at one of three predetermined starting locations. The order of the start location was varied daily. Learning was measured as a decrease in time required to swim to the platform. […] The animals remained on the platform for 10 sec before being removed from the tank. Ten min after the last training trial on day 5, the animals received a probe test. The platform was removed for this 1 trial task and the animals were allowed to swim for 60 sec to assess the spatial bias for the platform location. Two measures were recorded from this task: latency to first crossing the area where the platform had been, and total number of crossings. A total of 5 injections of Compound 4 were given to each rat. In the first series of experiments, Compound 4 was administered at 10 mg/kg i.p. daily for 5 days. […] In a subsequent study, six animals received 1 mg/kg i.p. for the first 4 days of training, while two animals received 5 mg/kg i.p. during this period. […]

temporary focal ischemia = test: Temporary focal cerebral ischemia (middle cerebral artery occlusion, suture withdrawn after 2 hr); assay type: in vivo, rat; conditions: 10 mg/kg i.p. immediately after onset of ischemic event; 72 hr
Method: In a fourth model of focal cerebral ischemia in the rat, the middle cerebral artery was temporarily occluded by passing a small piece of suture thread through the carotid artery to the region of the middle cerebral artery. The suture thread was withdrawn after an ischemic period of 2 hr. Core body temperature was maintained at 37° C. […]

NMDA receptor [9] = conditions: rat hippocampal slices
Method: Glutamate-mediated transmission at synapses of Schaffer collateral fibers and CA1 pyramidal cells was measured in slices of rat brain containing the hippocampus. This assay measures electrophysiologically the postsynaptic depolarization caused by the presynaptic release of glutamate, and can readily distinguish synaptic transmission mediated by NMDA or AMPA receptors.

audiogenic seizures = test: animal or person; assay type: in vivo, DBA/2 mice; conditions: mouse, in vivo
Method: The first two models used DBA/2 mice which are prone to audiogenic seizures. […] The test substances were administered 15-30 min before the convulsant stimulus.

motor performance = test: Acute motor impairment (rotorod) in mice; conditions: Frings mice, i.c.v. injection
Method: (§1) In this assay, Frings and CF1 mice were injected with test compound and placed on a knurled rod which rotated at a speed of 6 rpm. The ability of the mice to maintain equilibrium for long periods of time was determined; those mice that were unable to maintain equilibrium on the rotorod for 1 min in each of 3 trials were considered impaired.

NMDA receptor [10] = test: Inhibition of NMDA/glycine-induced increases in intracellular calcium in cultured rat cerebellar granule cells (RCGC); assay type: cell-based
focal ischemic stroke = test: Rat model of focal ischemic stroke (vessel occlusion); assay type: in vivo, rats; conditions: i.p. 2 mg/kg 30 min prior to vessel occlusion and 2 mg/kg 3 hr post-occlusion
[11] = test system: maximal electroshock-induced seizures; test: Maximal electroshock-induced seizures in rats; assay type: in vivo; conditions: Rattus norvegicus; rats, oral; read-out: ED50, maximal electroshock-induced seizures
in vivo [12] = conditions: rat, po
in vivo [13] = conditions: mouse, in vivo, ip
Method: as §1

[14] = test system: maximal electroshock-induced seizures; test: Maximal electroshock-induced seizures in mice; assay type: in vivo; conditions: Mus musculus, ip; mice
GluR1 [15] = target: T1, GluR1 (Rattus norvegicus, UniProt P19490); conditions: cited from earlier work
T1 construct: host or cells: Xenopus oocytes
T1 sequence (P19490 19-907): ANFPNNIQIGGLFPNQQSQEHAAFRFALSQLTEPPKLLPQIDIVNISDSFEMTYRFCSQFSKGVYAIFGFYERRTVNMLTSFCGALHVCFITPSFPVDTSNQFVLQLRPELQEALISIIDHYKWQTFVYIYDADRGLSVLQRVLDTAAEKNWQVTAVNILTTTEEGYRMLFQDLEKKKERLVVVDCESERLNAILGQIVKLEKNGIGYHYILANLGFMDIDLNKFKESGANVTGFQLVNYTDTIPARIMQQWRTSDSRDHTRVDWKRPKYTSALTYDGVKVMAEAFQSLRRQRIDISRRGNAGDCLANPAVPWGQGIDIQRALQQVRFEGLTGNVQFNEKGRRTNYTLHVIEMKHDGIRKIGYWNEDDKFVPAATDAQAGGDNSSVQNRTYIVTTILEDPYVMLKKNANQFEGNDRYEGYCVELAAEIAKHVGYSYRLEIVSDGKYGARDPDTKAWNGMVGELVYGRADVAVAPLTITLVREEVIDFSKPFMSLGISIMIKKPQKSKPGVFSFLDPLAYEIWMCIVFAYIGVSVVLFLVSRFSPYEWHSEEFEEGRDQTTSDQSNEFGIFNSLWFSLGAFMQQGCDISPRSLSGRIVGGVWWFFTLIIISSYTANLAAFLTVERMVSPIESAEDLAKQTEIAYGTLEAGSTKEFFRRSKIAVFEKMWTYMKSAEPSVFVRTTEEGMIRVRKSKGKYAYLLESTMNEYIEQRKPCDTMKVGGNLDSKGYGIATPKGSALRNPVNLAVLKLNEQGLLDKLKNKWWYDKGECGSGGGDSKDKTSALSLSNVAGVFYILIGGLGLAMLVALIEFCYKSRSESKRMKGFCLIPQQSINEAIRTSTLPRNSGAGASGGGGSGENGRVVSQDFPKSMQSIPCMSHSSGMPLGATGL

GluR3 = target: T2, GluR3 (Rattus norvegicus, UniProt P19492); conditions: cited from earlier work
T2 construct: host or cells: Xenopus oocytes
T2 sequence (P19492 23-888): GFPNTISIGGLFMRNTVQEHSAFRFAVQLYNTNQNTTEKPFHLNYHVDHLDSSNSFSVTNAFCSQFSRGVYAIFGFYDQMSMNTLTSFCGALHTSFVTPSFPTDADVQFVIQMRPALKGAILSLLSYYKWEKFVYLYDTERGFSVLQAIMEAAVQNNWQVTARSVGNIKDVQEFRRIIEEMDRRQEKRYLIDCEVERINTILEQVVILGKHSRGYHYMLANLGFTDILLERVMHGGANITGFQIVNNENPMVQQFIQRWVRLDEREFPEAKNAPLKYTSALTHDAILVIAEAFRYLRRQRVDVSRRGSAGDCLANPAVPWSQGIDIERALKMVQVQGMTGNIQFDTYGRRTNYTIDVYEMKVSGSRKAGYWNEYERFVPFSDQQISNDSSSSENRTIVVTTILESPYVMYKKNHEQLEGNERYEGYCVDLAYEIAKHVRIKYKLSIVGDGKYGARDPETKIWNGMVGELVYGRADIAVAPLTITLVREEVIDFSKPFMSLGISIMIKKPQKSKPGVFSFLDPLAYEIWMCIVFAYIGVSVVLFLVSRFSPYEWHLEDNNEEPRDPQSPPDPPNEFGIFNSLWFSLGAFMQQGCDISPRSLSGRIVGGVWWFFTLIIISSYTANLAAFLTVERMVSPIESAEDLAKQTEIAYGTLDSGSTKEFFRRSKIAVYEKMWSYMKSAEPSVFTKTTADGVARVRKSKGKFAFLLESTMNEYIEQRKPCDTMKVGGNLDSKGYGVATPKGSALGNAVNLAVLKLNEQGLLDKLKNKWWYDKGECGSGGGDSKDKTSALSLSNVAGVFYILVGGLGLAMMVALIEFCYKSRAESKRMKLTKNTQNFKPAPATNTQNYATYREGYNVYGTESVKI

focal cerebral ischemia = test: Middle cerebral artery occlusion, permanent, surgical ligation; assay type: in vivo, rat; conditions: maximally effective dose 10 mg/kg; 24 hours
Method: In the first study using this stroke model, one cerebral artery was permanently occluded by surgical ligation. The test compounds were administered 30 minutes after the occlusion by a single intraperitoneal (i.p.) injection. During the course of these experiments, the core body temperature of the animals was maintained at 37° C. to prevent any hypothermic reaction. Brains were assessed histologically for neuronal cell loss 24 hours later. Infarct volumes were calculated using the area of histological pallor from 10 slides and integrating the distance between each successive section.

learning [16] = test: T maze learning test; conditions: i.p. 15 min before testing
Source text: In this test, rats were trained to alternate turning in a T maze for a food reward.

kainate receptors = conditions: read-out: IC50, kainate-induced responses; cited from earlier work
GluR1 [17] = target: T1, GluR1; conditions: cited from earlier work; remark: listed apart in the source
GluR1+GluR2 = target: T3, GluR1+GluR2 (Rattus norvegicus, UniProt P19490+P19491, Q607R); conditions: cited from earlier work
T3 construct: host or cells: Xenopus oocytes
T3 sequence (P19490 19-907): as the sequence (P19490 19-907) above
T3 sequence (P19491 22-883 Q607R): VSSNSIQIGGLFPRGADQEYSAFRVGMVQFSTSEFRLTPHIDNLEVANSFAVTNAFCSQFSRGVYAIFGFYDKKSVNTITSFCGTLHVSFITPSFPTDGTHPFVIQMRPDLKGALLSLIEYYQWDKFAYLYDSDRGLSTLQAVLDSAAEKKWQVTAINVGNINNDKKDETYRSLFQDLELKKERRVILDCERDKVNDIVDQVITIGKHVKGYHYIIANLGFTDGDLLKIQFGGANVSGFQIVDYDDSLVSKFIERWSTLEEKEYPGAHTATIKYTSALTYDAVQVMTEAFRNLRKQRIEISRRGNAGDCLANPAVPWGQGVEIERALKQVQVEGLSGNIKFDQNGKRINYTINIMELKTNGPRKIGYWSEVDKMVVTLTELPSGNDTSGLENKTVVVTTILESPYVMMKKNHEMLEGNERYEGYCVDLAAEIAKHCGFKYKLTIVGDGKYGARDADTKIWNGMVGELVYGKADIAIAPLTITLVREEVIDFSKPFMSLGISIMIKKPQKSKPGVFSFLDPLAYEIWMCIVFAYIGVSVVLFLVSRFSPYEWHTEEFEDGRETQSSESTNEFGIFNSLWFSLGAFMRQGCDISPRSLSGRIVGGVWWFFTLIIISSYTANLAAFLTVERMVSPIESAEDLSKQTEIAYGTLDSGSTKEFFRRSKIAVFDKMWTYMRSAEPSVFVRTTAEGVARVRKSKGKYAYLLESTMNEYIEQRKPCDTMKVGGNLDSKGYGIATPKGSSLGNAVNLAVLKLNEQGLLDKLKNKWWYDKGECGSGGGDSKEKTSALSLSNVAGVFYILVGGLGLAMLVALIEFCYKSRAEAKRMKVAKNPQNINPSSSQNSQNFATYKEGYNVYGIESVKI

NMDA receptors = conditions: read-out: IC50, NMDA-induced responses; cited from earlier work
NMDAR1 = target: T4, NMDAR1 (UniProt A7XY94+P35439); conditions: cited from earlier work
T4 construct: host or cells: Xenopus oocytes
T4 sequence (A7XY94 25-1448, other chains not shown): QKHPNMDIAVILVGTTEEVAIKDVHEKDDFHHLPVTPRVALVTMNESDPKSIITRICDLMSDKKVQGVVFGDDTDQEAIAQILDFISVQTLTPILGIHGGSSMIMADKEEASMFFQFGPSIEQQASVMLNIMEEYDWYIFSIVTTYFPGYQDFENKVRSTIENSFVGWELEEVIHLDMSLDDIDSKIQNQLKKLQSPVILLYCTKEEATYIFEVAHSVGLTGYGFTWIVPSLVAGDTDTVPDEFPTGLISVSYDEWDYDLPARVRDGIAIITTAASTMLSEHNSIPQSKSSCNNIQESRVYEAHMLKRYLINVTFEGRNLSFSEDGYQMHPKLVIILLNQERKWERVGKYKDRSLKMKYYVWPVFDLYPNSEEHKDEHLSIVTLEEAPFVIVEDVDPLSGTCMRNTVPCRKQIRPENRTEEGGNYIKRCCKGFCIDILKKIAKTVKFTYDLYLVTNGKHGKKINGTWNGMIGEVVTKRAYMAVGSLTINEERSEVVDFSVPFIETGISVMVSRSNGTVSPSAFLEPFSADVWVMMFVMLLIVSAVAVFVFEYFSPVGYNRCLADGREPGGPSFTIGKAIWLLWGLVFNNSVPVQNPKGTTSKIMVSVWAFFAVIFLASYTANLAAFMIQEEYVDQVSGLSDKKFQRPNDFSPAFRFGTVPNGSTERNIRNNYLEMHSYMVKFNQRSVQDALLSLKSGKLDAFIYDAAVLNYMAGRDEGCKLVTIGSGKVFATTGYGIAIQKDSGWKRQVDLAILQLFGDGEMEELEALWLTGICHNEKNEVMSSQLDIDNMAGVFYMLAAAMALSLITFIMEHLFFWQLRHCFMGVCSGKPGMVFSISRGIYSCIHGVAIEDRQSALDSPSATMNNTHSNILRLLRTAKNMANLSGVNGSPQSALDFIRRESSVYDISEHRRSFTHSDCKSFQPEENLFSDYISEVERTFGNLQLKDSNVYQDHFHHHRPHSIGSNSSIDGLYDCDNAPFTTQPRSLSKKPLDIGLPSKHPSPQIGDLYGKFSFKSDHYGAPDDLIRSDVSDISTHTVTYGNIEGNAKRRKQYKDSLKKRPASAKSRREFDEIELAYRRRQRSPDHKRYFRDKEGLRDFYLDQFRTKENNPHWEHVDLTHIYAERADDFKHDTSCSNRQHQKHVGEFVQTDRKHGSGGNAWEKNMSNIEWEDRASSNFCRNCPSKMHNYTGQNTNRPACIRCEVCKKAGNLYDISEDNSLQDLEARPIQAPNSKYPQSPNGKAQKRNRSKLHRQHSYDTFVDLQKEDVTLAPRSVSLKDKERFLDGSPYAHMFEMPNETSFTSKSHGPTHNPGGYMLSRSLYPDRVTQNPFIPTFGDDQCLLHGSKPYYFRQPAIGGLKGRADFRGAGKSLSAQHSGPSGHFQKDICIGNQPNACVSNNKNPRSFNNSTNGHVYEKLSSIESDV

[18] = test system: muscle relaxation and anesthesia; conditions: intrathecal administration; cited from earlier work
[19] = NMDA/glycine-induced increases in intracellular calcium, cultured rat cerebellar granule cells, read-out: IC50 (μM) vs. NMDA

NCCCNCCCCNCCCNCCCNCCCNC(=O)Cc1c[nH]c2ccc(F)cc12 [Compound 4]
late-phase flinching, administered after the formalin ([1]; 0.3-10 nmol i.th., 10 min after formalin): significance achieved at the 3 and 10 nmol doses
flinching behaviors, pretreatment to formalin ([1]; 0.3-10 nmol i.th., 10 min prior to formalin): effectively inhibited both early- and late-phase flinching behaviors
IC50 [2]: 89 µM
reduction in neuronal death / protection in region CA1 of the hippocampus [3]: 90%
IC50, inhibition of acetic acid-induced writhing [4]: 1 mg/kg
Drop in Mean Arterial Blood Pressure ([5]; 1.5 μmoles/kg i.v., rats): 40 mm Hg at
Drop in Mean Arterial Blood Pressure: duration ([5]; 1.5 μmoles/kg i.v., rats): i.v., 120 min
drop in mean arterial pressure ([5]; 10 mg/kg i.p.): 40 mm Hg
persistence of the drop in mean arterial pressure ([5]; 10 mg/kg i.p.): 90 to 120 min
analgesic effect, tail flick (52° C. warm water) (thermal nociception [6]; 0.3-3 nmol i.th.): dose- and time-dependent analgesic effect
reduction in the volume of the brain infarct (permanent focal ischemia): 20%
IC50, prevention of sound-induced seizures (sound-induced seizures; intracerebroventricular (i.c.v.) injection): 4.77 µg
LTP Assay (block of the induction of LTP) (induction of LTP; at 100 μM): no block
antinociceptive effect, hot plate (thermal nociception [7]; 0.3-3 nmol i.th.): dose- and time-dependent antinociceptive effects
reduction in the volume of the infarct (focal ischemia): 20%
learning in the Morris water maze (learning [8]): impaired learning
reduction in the volume of the brain infarct (temporary focal ischemia): 37%
Suppression of NMDA Receptor-Mediated Synaptic Transmission (concentration which suppresses) (NMDA receptor [9]): 10 to 100 µM
EC50 in the audiogenic seizure model (audiogenic seizures): 0.08 mg/kg
TD50, acute motor impairment (motor performance): 8 to 16 µg
IC50 (NMDA receptor [10]; [19]): 0.184 µM

COc1ccccc1C(CCN)c1cccc(F)c1 (stereo not drawn) [Compound 24, 3-(3-fluorophenyl)-3-(2-methoxyphenyl)-1-propylamine]
neuroprotectant activity in a rat model of focal ischemic stroke (focal ischemic stroke): no significant neuroprotectant activity
ED50 [11]: 46 mg/kg
IC50 [2]: 0.591 µM
TD50 (in vivo [12]): 51 mg/kg
no significant cardiovascular activity in anesthetized rats at doses up to ([5]; i.v.): up to 10 mg/kg
ED50 (sound-induced seizures; Mus musculus, ip, Frings mice): 5 mg/kg
TD50 (in vivo [13]; Frings): 16 mg/kg
IC50 (NMDA receptor [10]; [19]): 0.206 µM

COc1cccc(C(CCN)c2cccc(F)c2)c1 (stereo not drawn) [Compound 25, 3-(3-fluorophenyl)-3-(3-methoxyphenyl)-1-propylamine]
ED50 [11]: 46.4 mg/kg
IC50 [2]: 0.871 µM
TD50 (in vivo [12]): 163 to 326 mg/kg
TD50 (in vivo [13]): 32.2 mg/kg
ED50 [14]: 12.5 mg/kg
IC50 (NMDA receptor [10]; [19]): 0.279 µM

NCCCNCCCCNCCC(=O)NCCCCCNC(=O)[C@H](CC(N)=O)NC(=O)Cc1ccc(O)cc1O [JSTX-3]
IC50 (GluR1 [15]): 40 nM
IC50 (GluR3): 30 nM

C[C@]12N[C@H](Cc3ccccc31)c1ccccc12 [MK-801, reference compound]
protection against neuronal cell loss (focal cerebral ischemia): approximately 15%
ability to make the correct choices in the T maze (learning [16]): progressively decreased the number of correct choices
analgesic effect, tail flick (52° C. warm water) (thermal nociception [6]; 3-30 nmol): ineffective
induction of LTP (p<0.05) (induction of LTP; slices superfused 30-60 min): significantly blocked
antinociceptive effect, hot plate (thermal nociception [7]; 3-30 nmol): ineffective
EC50 in the audiogenic seizure model (audiogenic seizures): 0.02 mg/kg

CCCC(=O)N[C@@H](Cc1ccc(O)cc1)C(=O)NCCCNCCCCNCCCN [PhTX-343]
IC50 (kainate receptors): 120 nM
IC50 (GluR1 [17]): 2800 nM
IC50 (GluR1+GluR2): 270000 nM
IC50 (NMDA receptors): 2500 nM
IC50 (NMDAR1): 2190 nM

NCCCNCCCCNCCCNCCCN(O)CCCNC(=O)Cc1c[nH]c2ccccc12 [agatoxin-489]
muscle relaxation and anesthesia [18]: not
